The subject of series [1] is C57BL/6 responder cells (mixed lymphocyte reaction). The series can be described thus: TEST 4: suppression of in vitro mixed lymphocyte reaction (MLR). It is filed as cell-based, mouse (C57BL/6, BALB/C). Particulars: 4080 min. The protocol: The MLR tests were carried out in microtiter plates, with each well containing specified concentration of WF 2015 A and 5×10^5 C57BL/6 responder cells (H-2^b), 5×10^5 mitomycin C treated (25 μg/ml mitomycin C at 37° C. for 30 minutes) BALB/C stimulator cells (H-2^d) in 0.2 ml RPMI 1640 medium, supplemented with 10% fetal calf serum, 2mM glutamine, 3×10^-5 M 2-mercaptoethanol, 24 mM sodium bicarbonate, penicillin (50 unit/ml) and streptomycin (50 μ/ml). The cells were incubated at 37° C. in a humidified atmosphere of 5% CO2 :95% air for 68 hours and pulsed with ^3 H-thymidine (0.5 μCi) 4 hours before the cells were collected. Radio-activity of the cells was assayed by B-counter. From the resultant data, MLR suppression (%) was calculated.

Series [2] concerns mouse lymphoma EL-4 cell. The series is described as follows: TEST 2: in vitro cytotoxicity of WF 2015, EL-4 cells. The following applies: 48 hours incubation, 37° C. It is filed as cell-based. How it is done:
(§1) Human lung adenocarcinoma A549 cell and mouse lymphoma EL-4 cell were used in this study. A549 cells were propagated as monolayer culture in Dulbecco's medium supplemented with 10% heat inactivated fetal bovine serum (FBS), penicillin G (60 μg/ml) and streptomycin (20 μg/ml) and harvested by trypsinization. EL-4 cells were maintained in RPMI medium supplemented with 10% FBS and the antibiotics in culture flasks.
(§2) Exponentially growing cells of A 549 or EL-4, which harvested from the cultures, were suspended in flask in the appropriate medium (Dulbecco's or RPMI medium supplemented with 10% FBS and antibiotics) at a concentration of 2×10^4 cells/ml or 2×10^5 cells/ml. respectively. Cells were treated with the graded doses of WF 2015 in plastic tissue culture dishes.
(§3) Concentration of the substance required for 50% inhibition of cell growth (IC50 value, μg/ml) was determined by plotting the logarithm of the drug concentration versus the growth rate (percentage of control) of the treated cells after 120 hours incubation for A 549 cells and 48 hours incubation for EL-4 cells at 37° C. in humidified atmosphere of 5% carbon dioxide.

Series [3] relates to Mouse fibrosarcoma Meth A. The series is described as follows: TEST 1: antitumor activity of WF 2015 A in experimental tumor system in mice (Meth A). The series is classed as in vivo, mouse (Balb/c). The following applies: at 14 days, mean ± S.E., n = 5, Control 1136.6 ± 138.3. How it is done:
The antitumor activity of WF 2015 A was determined in experimental tumor system in mice.
Mouse fibrosarcoma Meth A was implanted intradermally into Balb/c mice (female, 8 weeks age) at an inoculum size of 1×10^5 cells per mouse. Twenty-four hours after the implantation of tumor cells, graded doses of WF 2015 A were administered to the mice intravenously. Treatments were once a day on day 1, 2, 3, 4 and 7, 8, 9, 10 after the tumor inoculation. Control animals received intravenous doses of physiological saline solution. The injection volume was 0.2 ml in all experiments. Five mice were used for each experimental group.
Tumor weight at 14 days after administration, as derived from caliper measurements of the length and width of tumors, was calculated by the formula: Tumor weight (mg)=1/2×a×b^2, where a represents the length and b represents the width (mm).

The test system of series [4] is Human MX-1 mammary. The series can be described thus: TEST 5: antitumor activity in vivo (human MX-1 mammary in nude mice). Further details: species or system human tumor in BALB/c nu/nu mice. Particulars: day 0→4, 7→11, 14→18, evaluated day 21, n = 8. The protocol:
Human MX-1 mammary (each fragment, 3×3×3 mm), maintained s.c. by serial passage in female BALB/c nu/nu mice aged 6 weeks was implanted s.c. to female BALB/c nu/nu mice on day 0, and WF 2015 A or vehicle were given i.v. to the mice once a day on specified days (day0→4, day 7→11 and day 14→18).
Tumor weight was calculated as follows: (Tumor length and width were measured by caliper.)
Tumor weight (mg)=1/2×a×b^2, where a represents length and b represents width (mm).
Tumor weights (initial) and (last) were calculated on the first injection day (just before dosing) and on day 21, (the last evaluation day), respectively.
Eight mice were used for each test group and each vehicle-treated control group, respectively.
Drug efficacy was expressed as tumor growth inhibition (%).

Series [5] deals with Human lung adenocarcinoma A549 cell. The series can be described thus: TEST 2: in vitro cytotoxicity of WF 2015, A549 cells. It is filed as cell-based. Particulars: 120 hours incubation, 37° C. The protocol:
as §1, §2, §3

Series [6] deals with ICR strain mice. The series is described as follows: TEST 3: acute toxicity of WF 2015 in mice. The series is classed as in vivo, mouse (ICR). The following applies: 100 mg/kg once a day for 5 days, 5 female ICR mice.
The nature of series [7]: Solubility of WF 2015 A and B (physicochemical properties).

Turning to `CO[C@@H]1[C@H](OC(=O)/C=C/C(O)C(C)O)CC[C@]2(CO2)[C@H]1[C@@]1(C)O[C@@H]1CC=C(C)C` (some centres unmarked) [WF 2015 A], the “MLR suppression (%)” value in series [1] (0.0066 ng/ml) is listed as 0.0%; in series [1] (0.02 ng/ml), 0.4%; in series [1] (0.066 ng/ml) it was 8.5%; in series [1] (0.2 ng/ml), 9.4%; in series [1] (6.6 ng/ml) it was 49.1%; in series [1] (20 ng/ml) it was 86.2%. The “MLR suppression (%)” value in series [1] (40 ng/ml) is 88.0%; in series [1] (161 ng/ml), 87.3%; in series [1] (1,250 ng/ml), 89.0%; in series [1] (10,000 ng/ml) it was 94.4%. The “IC50 value (concentration required for 50% inhibition of cell growth)” value in series [2] was determined as 0.65 ng/mL; in series [5], 0.3 ng/mL. Further, the Tumor weight in series [3] (1.0 mg/kg i.v. once a day on day 1, 2, 3, 4 and 7, 8, 9, 10) stood at 864 ± 108.7 mg; in series [3] (3.3 mg/kg i.v. once a day on day 1, 2, 3, 4 and 7, 8, 9, 10) it was 682 ± 131.5 mg; in series [3] (10 mg/kg i.v. once a day on day 1, 2, 3, 4 and 7, 8, 9, 10) it was 27.7 ± 105.6 mg. Further, the “Tumor Growth Inhibition (%)” value in series [4] (10 mg/kg i.v. once a day) was 41.2%; in series [4] (30 mg/kg i.v. once a day), 62.6%. Moreover, in series [6], the “Acute toxicity, abnormal symptom of the mice” value is “no abnormal symptom of the mice was observed”. For the same compound, the Solubility entry in series [7] (Chloroform, methanol, acetone, ethanol) is on record as “Soluble”; in series [7] (n-Hexane, water), “Insoluble”.

Source of the values: patent US4910017A, “New compounds WF 2015 A and B” (Fujisawa Pharmaceutical Company, Ltd., priority 1987, dated 1990).
